The values that follow come from patent publication US12478603B2, “Serum metabolites as biomarkers for carnitine treatment of sepsis” (priority 2020, dated 2025).

SMILES strings stand for the structures. “Also recorded” adds a separate entry of the source. Like-named read-outs stand apart in the source and are kept apart here.

Test [1] concerns patients with septic shock. The settings on record: cited from earlier work; for absolute mortality reduction at 28 days compared to saline placebo: 18 g dose, non-significant.
The test system of test [2] is patients with septic shock. Kind of test: Pharmacometabolomic analysis of the RACE trial: mortality after L-carnitine stratified by pre-treatment serum acetylcarnitine. Particulars: for 90-day mortality: high (≥36 μM) pretreatment acetylcarnitine, placebo 100%; for hazard ratio (Mantel-Haenszel) / Kaplan-Meier curve, mortality benefit: 18 g vs placebo. Format: in vivo, human. The source says:
Patient selection: Detailed inclusion and exclusion criteria have been previously reported (see, e.g., Jones (2018) “Effect of Levocarnitine vs Placebo as an Adjunctive Treatment for Septic Shock: The Rapid Administration of Carnitine in Sepsis (RACE) Randomized Clinical Trial” JAMA Netw Open 1: e186076, incorporated herein by reference). Briefly, patients presenting with suspected or confirmed infection and meeting consensus criteria for septic shock including administration of continuous vasopressors despite adequate fluid resuscitation, an elevated lactate>2 mmol/L, and a SOFA score of at least 5 were eligible for inclusion. All patients enrolled in the clinical trial were included in the present analysis with the exception of two patients who withdrew consent following randomization and 12 that lacked a T0 sample (FIG. 6).
Blood sampling. Following consent but prior to initiation of therapy, whole blood was drawn into serum separator tubes (SST; Vacutainer, Becton Dickinson, Franklin Lakes, NJ) and was allowed to clot for at least 30 minutes at room temperature. A portion of whole blood was aliquoted, while the remainder was centrifuged to yield serum. All samples were then frozen at −80° C. within 60 minutes of the initial sample acquisition. This approach has been previously utilized to yield samples appropriate for metabolomics analyses (see, e.g., Puskarich (2015) “Pharmacometabolomics of L-carnitine treatment response phenotypes in patients with septic shock” Ann Am Thorac Soc 12: 46-56, incorporated herein by reference). At the completion of the clinical trial, serum samples were shipped on dry ice to the University of Michigan for assay.
Measurement of Acylcarnitines: Analysis was performed consistent with prior methods (see, e.g., Puskarich (2018) “Septic Shock Nonsurvivors Have Persistently Elevated Acylcarnitines Following Carnitine Supplementation” Shock 49: 412-419, incorporated herein by reference). Briefly, at the time of analysis, serum samples were thawed on ice and extraction solvent was prepared consisting of a 1:1:1 mixture of methanol:acetonitrile:acetone plus a 1:200 dilution of a stock mixture of stable-isotope labeled acylcarnitine standards dissolved according to manufacturer instructions (NSK-B, Cambridge Isotope Laboratories). Acylcarnitine species were then analyzed without derivatization by RPLC-MS/MS using an Agilent 1200 LC coupled to an Agilent 6410 tandem quadrupole (Santa Clara, CA). A pooled sample generated by combining a small volume of all study samples was injected every 10th run and was used for intra-batch and inter-batch drift correction as described below. Absolute quantitation by isotope dilution mass spectrometry was performed for acylcarnitine species with exact-matching stable isotope internal standards (L-carnitine, C2, C3, C4, C5, C8, C14, C16) by multiplying the ratio of the unlabeled peak area/labeled peak area by the known concentration of acylcarnitine in the extraction solvent, then adjusting for dilution of the original serum sample. Other acylcarnitine species were limited to relative quantification by peak area.
By 90 days, 90% of the deaths occurred and the interaction term between L-carnitine treatment and mortality flattened (FIG. 7). Based on this analysis, 90-day mortality was chosen as the primary clinical outcome.
Statistical analysis: For logistic regression modeling, treatment assignment was scaled from 0 (placebo) to 1 (18 g L-carnitine) and age and SOFA score were z-scale normalized. Two main models were developed for each metabolite. The base model was described by log it(p)=B0+BD*Dose+BM*Metabolitei, where p is the probability of mortality in 90 days. The treatment interaction was modeled with: log it(p)=B0+(BD*Dose)+(BM*Metabolitei)+(BMD*Metabolitei)*Dose […]

As for `C[N+](C)(C)C[C@H](O)CC(=O)[O-]` [L-carnitine], the “reduction in sequential organ failure assessment (SOFA) score at 48 hours” value in test [1] (6, 12 or 18 g) is on record as “none of the tested L-carnitine doses produced a significant reduction”. For the same molecule, the results for the “absolute mortality reduction at 28 days compared to saline placebo” value in test [1] (intention to treat analysis) and in test [1] (per protocol analysis) were 3% and 6%, respectively. In addition, the “predicted probability of 90-day mortality (interaction logistic regression model)” value in test [2] (as baseline acetylcarnitine concentration increases, dose 0, 6, 12, 18 g) was “declines with increasing L-carnitine dose”. Besides, the 90-day mortality came to 50% in test [2] (L-carnitine 18 g, p=0.002) and 69% in test [2] (L-carnitine any dose, p=0.02). The “proportion of 90-day non-survivors by dose received” value in test [2] (low baseline acetylcarnitine tertile (normalized [−2.21, −0.508], n=79), placebo, 6, 12, 18 g, Fisher's exact test p=0.81) is “not associated with dose received; also recorded: not different between placebo or L-carnitine doses”. The “treatment benefit (90-day mortality)” value in test [2] (patients with acetylcarnitine less than 36 μM) is recorded as “no treatment benefit”. Moreover, in test [2] (patients with acetylcarnitine ≥26 μM, L-carnitine 18 g, additional analysis (trend)), the “treatment / mortality benefit” value was “received a treatment benefit; also recorded: derived a mortality benefit”. The “hazard ratio (Mantel-Haenszel)” value is “not significant” in test [2] (scenario 1: no acetylcarnitine threshold); “improved but is not significant” in test [2] (scenario 2: acetylcarnitine (C2) threshold ≥26 μM); “significant and favors L-carnitine (18 g)” in test [2] (scenario 3: acetylcarnitine (C2) threshold ≥30 μM); “significant” in test [2] (scenario 4: acetylcarnitine (C2) threshold ≥36 μM). Moreover, the “Kaplan-Meier curve, mortality benefit” value in test [2] (scenario 1: no acetylcarnitine threshold, n=170, p=0.28) is “no mortality benefit”; in test [2] (scenario 2: acetylcarnitine (C2) threshold ≥26 μM, 52 patients, p=0.14), “no mortality benefit”; in test [2] (scenario 3: acetylcarnitine (C2) threshold ≥30 μM, 42 patients, p=0.01) it was “mortality benefit”; in test [2] (scenario 4: acetylcarnitine (C2) threshold ≥36 μM, 34 patients, p=0.004) it was “mortality benefit”.
